# Molecular target: recombinant human ASK1 kinase (Homo sapiens (Human), UniProt Q99683)
# Test: TR-FRET ASK1 (Apoptosis Signal-Regulating Kinase 1) kinase assay
# Format: biochemical
# Conditions: 4 nM ASK1, 1 μM STK3 peptide substrate, 100 μM ATP, HTRF detection; average of quadruplicate determination; read-out: IC50 (nM), activities of the compounds of Formula (I) to ASK1
# From the text: I. TR-FRET ASK1 (Apoptosis Signal-Regulating Kinase 1) Kinase Assay
# To evaluate the inhibitory activity of compounds of the invention against ASK1 (Apoptosis Signal-regulating Kinase 1) kinase, its activity was examined using a TR-FRET ASK1 kinase assay which determined the amount of phosphate transferred to a peptide substrate from ATP.
# Dephosphorylated recombinant human ASK1 kinase was from Gilead Sciences. Small molecule kinase inhibitor staurosporine (Catalogue #S6942) and dithiothreitol (DTT, catalogue #43815-5G) were obtained from Sigma Chemicals (St. Louis, Mo.). ATP (catalogue #7724) was from Affymetrix (Santa Clara, Calif.) and test compounds were from Gilead Sciences. HTRF KinEASE™-STK S3 kit was obtained from Cisbio (Bedford, Mass.). All other reagents were of the highest grade commercially available.
# The assay measures the phosphorylation level of a biotinylated peptide substrate by the ASK1 kinase using HTRF detection. This is a competitive, time-resolved fluorescence resonance energy transfer (TR-FRET) immunoassay, based on HTRF® KinEASE™-STK manual from Cisbio. Test compound, 1 μM STK3 peptide substrate, 4 nM of ASK1 kinase were incubated with 10 mM MOP buffer, pH. 7.0 containing 10 mM Mg-acetate, 0.025% NP-40, 1 mM DTT, 0.05% BSA and 1.5% glycerol for 30 minutes then 100 μM ATP was added to start the kinase reaction and incubated for 3 hr. Peptide antibody labeled with 1× Eu^3+ Cryptate buffer containing 10 mM EDTA and 125 nM Streptavidin XL665 were added to stop the reaction and phosphorylated peptide substrate was detected using Envision 2103 Multilabeled reader from PerkinElmer. The fluorescence was measured at 615 nm (Cryptate) and 665 nm (XL665) and a ratio of 665 nm/615 nm was calculated for each well. The resulting TR-FRET level (a ratio of 665 nm/615 nm) was proportional to the phosphorylation level. Under these assay conditions, the degree of phosphorylation of peptide substrate was linear with time and concentration for the enzyme. The assay system yielded consistent results with regard to Km and specific activities for the enzyme. For inhibition experiments (IC50 values), activities were performed with constant concentrations of ATP, peptide and several fixed concentrations of inhibitors. Staurosporine, the nonselective kinase inhibitor, was used as the positive control. All enzyme activity data are reported as an average of quadruplicate determination.
# The IC50 values were calculated following equation: y=Range/{1+(x/IC50)^s}+Background where x and y represent the concentration of inhibitors and enzyme activity, respectively. Enzyme activity is expressed as the amount of Phosphate incorporated into substrate peptide from ATP. Range is the maximum y range (no inhibitor, DMSO control) and s is a slope factor.
# Sequence of recombinant human ASK1 kinase (Q99683 whole entry): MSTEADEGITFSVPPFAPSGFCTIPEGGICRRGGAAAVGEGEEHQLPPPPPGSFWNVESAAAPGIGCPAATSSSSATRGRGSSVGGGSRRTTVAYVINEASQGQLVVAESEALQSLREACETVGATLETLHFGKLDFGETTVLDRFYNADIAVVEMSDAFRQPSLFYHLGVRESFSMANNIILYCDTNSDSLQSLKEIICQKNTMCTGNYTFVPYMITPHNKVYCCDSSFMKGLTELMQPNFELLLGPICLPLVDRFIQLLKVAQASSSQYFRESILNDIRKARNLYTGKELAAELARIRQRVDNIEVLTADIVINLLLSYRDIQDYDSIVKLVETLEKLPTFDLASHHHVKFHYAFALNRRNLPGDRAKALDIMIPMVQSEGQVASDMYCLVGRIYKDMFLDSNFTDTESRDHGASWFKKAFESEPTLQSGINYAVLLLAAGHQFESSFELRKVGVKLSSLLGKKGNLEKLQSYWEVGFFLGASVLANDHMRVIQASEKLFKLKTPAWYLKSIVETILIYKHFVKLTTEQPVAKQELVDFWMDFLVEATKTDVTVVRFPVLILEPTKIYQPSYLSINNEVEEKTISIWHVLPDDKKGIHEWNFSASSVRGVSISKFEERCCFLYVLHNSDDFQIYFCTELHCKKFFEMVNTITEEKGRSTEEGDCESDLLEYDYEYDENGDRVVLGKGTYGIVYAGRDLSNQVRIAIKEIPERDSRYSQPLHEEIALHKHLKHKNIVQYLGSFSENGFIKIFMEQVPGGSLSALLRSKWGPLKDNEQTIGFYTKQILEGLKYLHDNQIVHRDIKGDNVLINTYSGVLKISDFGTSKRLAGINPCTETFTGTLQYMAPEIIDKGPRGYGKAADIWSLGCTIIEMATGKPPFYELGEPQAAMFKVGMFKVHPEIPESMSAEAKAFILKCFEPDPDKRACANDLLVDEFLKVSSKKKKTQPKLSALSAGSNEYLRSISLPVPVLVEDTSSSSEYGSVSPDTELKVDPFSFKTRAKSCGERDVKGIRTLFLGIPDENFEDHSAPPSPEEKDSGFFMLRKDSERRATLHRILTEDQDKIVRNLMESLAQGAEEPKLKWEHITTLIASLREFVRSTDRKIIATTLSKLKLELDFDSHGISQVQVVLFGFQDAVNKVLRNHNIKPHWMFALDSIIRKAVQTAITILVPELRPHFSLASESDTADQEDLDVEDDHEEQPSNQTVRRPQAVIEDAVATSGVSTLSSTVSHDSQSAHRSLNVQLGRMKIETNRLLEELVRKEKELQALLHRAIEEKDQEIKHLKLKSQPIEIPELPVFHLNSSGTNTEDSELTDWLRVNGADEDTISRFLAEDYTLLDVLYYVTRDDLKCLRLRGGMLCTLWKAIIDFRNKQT
row,SMILES,IC50 [nM]
1,"O=C(Nc1csc(-c2nncn2C2CC2)n1)c1cc(-n2cnc(C3CC3)c2)c(N2CCN3CCCC3C2)cn1 (stereo not shown) [Compound 15, 5-(3,4,6,7,8,8a-hexahydro-1H-pyrrolo[1,2-a]pyrazin-2-yl)-4-(4-cyclopropylimidazol-1-yl)-N-[2-(4-cyclopropyl-1,2,4-triazol-3-yl)-1,3-thiazol-4-yl]pyridine-2-carboxamide]",2.7
2,"C[C@H](n1cnnc1-c1nc(NC(=O)c2cc(-n3cnc(C4CC4)c3)c(N3CC(C)(C#N)C3)cn2)cs1)C(F)(F)F [Compound 24, (S)-5-(3-cyano-3-methylazetidin-1-yl)-4-(4-cyclopropyl-1H-imidazol-1-yl)-N-(2-(4-(1,1,1-trifluoropropan-2-yl)-4H-1,2,4-triazol-3-yl)thiazol-4-yl)picolinamide]",1.4
3,"COC1CCN(c2cnc(C(=O)Nc3csc(-c4nncn4[C@@H](C)C(F)(F)F)n3)cc2-n2cnc(C3CC3)c2)C1 (stereo partly drawn) [Compound 28, 4-(4-cyclopropyl-1H-imidazol-1-yl)-5-(3-methoxypyrrolidin-1-yl)-N-(2-(4-((S)-1,1,1-trifluoropropan-2-yl)-4H-1,2,4-triazol-3-yl)thiazol-4-yl)picolinamide]",1.9
4,"C[C@H](n1cnnc1-c1nc(NC(=O)c2cc(-n3cnc(C4CC4)c3)c(N3CCN(CC(F)(F)F)CC3)cn2)cs1)C(F)(F)F [Compound 33, (S)-4-(4-cyclopropyl-1H-imidazol-1-yl)-5-(4-(2,2,2-trifluoroethyl)piperazin-1-yl)-N-(2-(4-(1,1,1-trifluoropropan-2-yl)-4H-1,2,4-triazol-3-yl)thiazol-4-yl)picolinamide]",1.2
